{"source": "PubChem BioAssay AID720578", "about": "(The Scripps Research Institute Molecular Screening Center, 2013)", "note": "The source made the active and inactive calls. The rule behind the calls is not given here."}
{"target": "Crimean-Congo hemorrhagic fever virus L protein viral ovarian tumor (vOTU) protease domain", "test": "CCHFV vOTU protease inhibitor potency, dose response, biochemical, fluorescence, Pep-AMC substrate (AID 720578)", "details": "recombinant CCHFV vOTU, Pep-AMC fluorescence cleavage"}
{"smiles": "COC1=C(N)C(=O)c2nc(C)ccc2C1=O", "IC50": "1.37 µM"}
{"smiles": "O=C(O)CSc1cc(NS(=O)(=O)c2ccc(Br)cc2)c2ccccc2c1O", "IC50": "4.45 µM"}
{"smiles": "COc1ccc(/C=N/NC(=O)c2nn(-c3ccc(Cl)cc3)c(=O)c3c(N)scc23)cc1", "IC50": "inactive"}
{"smiles": "CCOC(=O)/C=C(\\C)Sc1cc(O)c2ccccc2c1O", "IC50": "1.57 µM"}
{"smiles": "Cc1ccc2c(c1C)-c1c(ccc(C)c1C)C(=O)C2=O", "IC50": "7.79 µM"}
{"smiles": "CCCCCCCCCCOC(=O)Cn1c(COc2ccc(Cl)cc2)[n+](C)c2ccccc21", "IC50": "inactive"}
{"smiles": "Cc1c(Cl)cnc(NC(=O)COC(=O)c2ccc([N+](=O)[O-])s2)c1Cl", "IC50": "7.08 µM"}
{"smiles": "Cn1nc(-c2ccccn2)nc2c(=O)n(C)c(=O)nc1-2", "IC50": "0.366 µM"}
{"smiles": "O=C(O)c1cc(O)c2c(c1)[C@H]([C@H]1c3cc(C(=O)O)cc(O)c3C(=O)c3c(O[C@@H]4O[C@H](CO)[C@@H](O)[C@H](O)[C@H]4O)cccc31)c1cccc(OC3O[C@H](CO)[C@@H](O)[C@H](O)[C@H]3O)c1C2=O", "note": "(some centres not stated)", "IC50": "6.47 µM"}
{"smiles": "O=C1Cc2ccccc2C(=O)N1CCc1ccccc1", "IC50": "1.14 µM"}
{"smiles": "CC[C@H](CO)Oc1cc(NCc2cccc(N)c2)c2ncn(C(C)C)c2c1", "IC50": "6.52 µM"}
{"smiles": "CN(C)c1ncc(C2=C(Cl)C(=O)C(N3CCCC3)=C(Cl)C2=O)s1", "IC50": "inactive"}
{"smiles": "Cc1cc2c(cc1C)C(=O)C(Br)=C(N)C2=O", "IC50": "5.56 µM"}
{"smiles": "COc1cc(CCNC2=CC(=O)c3ncccc3C2=O)ccc1O", "IC50": "5.25 µM"}
{"smiles": "CC1=C(SCc2ccccc2)C(=O)c2ccccc2C1=O", "IC50": "2.51 µM"}
{"smiles": "CN(C)CCCNc1cc(O)c2ncccc2c1", "IC50": "5.13 µM"}
{"smiles": "O=S(=O)(Nc1cc(Sc2ncn[nH]2)c(O)c2ccccc12)c1ccccc1", "IC50": "0.708 µM"}
{"smiles": "CC(=O)Nc1ccc(S(=O)(=O)NC2=C(N3CCN(c4ccc(F)cc4)CC3)C(=O)c3ccccc3C2=O)cc1", "IC50": "inactive"}
{"smiles": "COc1ccccc1N=Nc1c(O)[nH]c(=S)[nH]c1=O", "IC50": "inactive"}
{"smiles": "Cc1oc2c(c1C(=O)N1CCOCC1)C(=O)c1ccccc1C2=O", "IC50": "inactive"}
{"smiles": "O=S(=O)(N=C1C=CC(=NS(=O)(=O)c2ccccc2)c2ccccc21)c1ccccc1", "IC50": "inactive"}
{"smiles": "CCOC(=O)c1c2c(n(Cc3ccccc3)c1C)C(=O)C(=O)c1ccccc1-2", "IC50": "2.16 µM"}
